Tests used:
Assay type in all cases: biochemical
PKC isoform α = PKC isoform α (Homo sapiens, UniProt P17252); assay: Protein Kinase C histone-based assay, PKC alpha; details: histone III substrate, 30 μM ATP
Procedure: (§1) Protein Kinase C Histone-Based Assay
(§2) Compounds were evaluated for PKC selectivity using histone III as the substrate. The PKC isoforms α, β-II or γ were added to a reaction mixture that contained 20 mM HEPES, (pH 7.4), 940 μM CaCl2, 10 mM MgCl2, 1 mM EGTA. 100 μg/mL phosphatidylserine, 20 μg/mL diacylglycerol, 30 μM ATP, 1 μCi (^33P)ATP and 200 μg/mL histone III. The reaction was incubated for 10 min at 30° C. Reactions were terminated by TCA precipitation and spotting on Whatman P81 filters. Filters were washed in 75 mM phosphoric acid and the radioactivity quantified by liquid scintillation counting.

PKC isoform β-II = PKC isoform β-II (Homo sapiens, UniProt P05771); assay: Protein Kinase C histone-based assay, PKC beta II; details: histone III substrate, 30 μM ATP
Procedure: as §1, §2

PKC isoform γ = PKC isoform γ (Homo sapiens, UniProt P05129); assay: Protein Kinase C histone-based assay, PKC gamma; details: histone III substrate, 30 μM ATP
Procedure: as §1, §2

[1] = molecular target: T1, recombinant rabbit GSK-3β protein (Oryctolagus cuniculus, UniProt G1T8E2); assay: Glycogen Synthase Kinase-3 assay (PPI-2 phosphorylation); details: for IC50: PPI-2 substrate, 33P-ATP
T1 construct: purchased New England Biolabs
Procedure: Glycogen Synthase Kinase-3 Assay
Compounds were tested for the ability to inhibit recombinant rabbit GSK-3β protein using the following protocol. The test compound was added to a reaction mixture containing Protein phosphatase inhibitor-2 (PPI-2) (Calbiochem) (45 ng), rabbit GSK-3β protein (New England Biolabs) (0.75 units) and ^33P-ATP (1 μCi) in 50 mM Tris-HCl (pH 8.0), 10 mM MgCl2, 0.1% BSA, 1 mM DTT and 100 μM Sodium Vanadate. The mixture was reacted for 90 minutes at 30° C. to allow phosphorylation of the PPI-2 protein and then the protein in the reaction was precipitated using 10% TCA. The precipitated protein was collected on filter plates (MultiScreen-DV/Millipore), which were subsequently washed. Finally, the radioactivity was quantified using a TopCount Scintillation Counter (Packard). […] Staurosporine or Valproate, known inhibitors of GSK-3β, were used as a positive control for screening.

T1 sequence (G1T8E2 1-432): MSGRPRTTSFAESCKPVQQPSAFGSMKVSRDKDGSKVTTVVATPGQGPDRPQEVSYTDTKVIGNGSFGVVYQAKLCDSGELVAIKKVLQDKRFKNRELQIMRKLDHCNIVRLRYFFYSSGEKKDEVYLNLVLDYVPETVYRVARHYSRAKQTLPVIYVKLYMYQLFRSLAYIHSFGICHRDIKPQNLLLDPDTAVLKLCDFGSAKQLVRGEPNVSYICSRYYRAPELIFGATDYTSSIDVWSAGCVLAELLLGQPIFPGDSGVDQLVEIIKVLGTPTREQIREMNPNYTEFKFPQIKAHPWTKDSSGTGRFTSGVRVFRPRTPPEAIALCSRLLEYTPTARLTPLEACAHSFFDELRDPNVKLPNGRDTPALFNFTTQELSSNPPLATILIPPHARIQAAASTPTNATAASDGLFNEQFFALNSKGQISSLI
PKC isoform β-II, sequence (P05771 1-673 isoform P05771-2): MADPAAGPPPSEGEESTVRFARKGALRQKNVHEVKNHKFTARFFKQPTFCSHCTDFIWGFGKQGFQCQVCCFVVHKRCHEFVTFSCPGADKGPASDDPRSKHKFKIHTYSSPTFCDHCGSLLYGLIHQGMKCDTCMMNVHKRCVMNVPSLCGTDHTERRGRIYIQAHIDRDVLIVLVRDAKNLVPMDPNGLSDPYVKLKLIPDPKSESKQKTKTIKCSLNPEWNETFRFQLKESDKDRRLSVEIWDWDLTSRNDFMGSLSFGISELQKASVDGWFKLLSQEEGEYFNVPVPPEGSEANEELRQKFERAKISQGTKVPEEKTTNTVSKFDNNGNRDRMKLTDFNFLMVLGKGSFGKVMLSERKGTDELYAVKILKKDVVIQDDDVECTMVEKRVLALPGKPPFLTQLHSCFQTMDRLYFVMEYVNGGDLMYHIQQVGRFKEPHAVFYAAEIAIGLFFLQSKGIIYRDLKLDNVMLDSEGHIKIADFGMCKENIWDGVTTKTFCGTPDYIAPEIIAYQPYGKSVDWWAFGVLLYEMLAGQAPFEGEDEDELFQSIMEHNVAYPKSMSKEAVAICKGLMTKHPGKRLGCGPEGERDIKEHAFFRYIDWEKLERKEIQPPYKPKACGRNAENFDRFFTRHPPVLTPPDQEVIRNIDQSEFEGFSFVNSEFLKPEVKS

Question: Which IC50 (PKC isoform α) does the source give for `Cc1nnnn1CCCn1nc(C2=C(c3cn(C)c4ccc(Cl)cc34)C(=O)NC2=O)c2ccccc21` [Compound 10] here?
Answer: The IC50 was 0.424 µM.

Question: What about the IC50 (PKC isoform β-II) of the same compound?
Answer: The IC50 was 0.009 µM.

Question: And the IC50 (PKC isoform γ)?
Answer: Its IC50 is 0.602 µM.

Question: And the IC50 [1]?
Answer: The IC50 was 0.005 µM.

Question: `O=C1NC(=O)C(c2nn(CCc3nnn[nH]3)c3ccccc23)=C1c1cn(-c2cccnc2)c2ccc(Cl)cc12` [Compound 12] was tested. Which IC50 (PKC isoform α) did it give?
Answer: The IC50 was 0.554 µM.

Question: What about the IC50 (PKC isoform β-II) of the same compound?
Answer: The IC50 was 0.069 µM.

Question: And the IC50 (PKC isoform γ)?
Answer: Its IC50 is 0.226 µM.

Question: What about the IC50 [1] of the same compound?
Answer: The IC50 was 0.107 µM.

Question: What does the source list for `Cn1cc(C2=C(c3nn(CCCn4cnnn4)c4ccccc34)C(=O)NC2=O)c2cc(Cl)ccc21` [Compound 4, 3-(5-Chloro-1-methyl-1H-indol-3-yl)-4-[1-(3-tetrazol-1-yl-propyl)-1H-indazol-3-yl]-pyrrole-2,5-dione]?
Answer: IC50 (PKC isoform α): 0.505 µM; IC50 (PKC isoform β-II): 0.035 µM; IC50 (PKC isoform γ): 0.544 µM; IC50 [1]: 0.004 µM

Question: How did the IC50 (PKC isoform α) turn out when `Cn1cc(C2=C(c3nn(CCCn4ccnc4)c4ccccc34)C(=O)NC2=O)c2cc(Cl)ccc21` [Compound 1, 3-(5-Chloro-1-methyl-1H-indol-3-yl)-4-[1-(3-imidazol-1-yl-propyl)-1H-indazol-3-yl]-pyrrole-2,5-dione] was run?
Answer: The IC50 was 0.567 µM.

Question: What about the IC50 (PKC isoform β-II) of the same compound?
Answer: Its IC50 is 0.015 µM.

Question: And the IC50 (PKC isoform γ)?
Answer: The IC50 was 0.476 µM.

Question: And the IC50 [1]?
Answer: The IC50 was 0.004 µM.

Question: What does the source list for `O=C1NC(=O)C(c2nn(CCCn3ncnn3)c3ccccc23)=C1c1cn(-c2cccnc2)c2ccccc12` [Compound 7, 3-(1-Pyridin-3-yl-1H-indol-3-yl)-4-[1-(3-tetrazol-2-yl-propyl)-1H-indazole-3-yl]-pyrrole-2,5-dione]?
Answer: IC50 (PKC isoform α): 0.451 µM; IC50 (PKC isoform β-II): 0.044 µM; IC50 (PKC isoform γ): 1.45 µM; IC50 [1]: 0.027 µM

Question: Which results are given for `O=C1NC(=O)C(c2nn(CCCn3cnnn3)c3ccccc23)=C1c1cn(-c2cccnc2)c2ccccc12` [Compound 8, 3-(1-Pyridin-3-yl-1H-indol-3-yl)-4-[1-(3-tetrazol-1-yl-propyl)-1H-indazol-3-yl]-pyrrole-2,5-dione]?
Answer: IC50 (PKC isoform α): 1.04 µM; IC50 (PKC isoform β-II): 0.052 µM; IC50 (PKC isoform γ): 4.3 µM; IC50 [1]: 0.034 µM

Question: With `O=C1NC(=O)C(c2nn(CCCn3ncnn3)c3ccccc23)=C1c1cn(-c2ccc3ccccc3c2)c2ccccc12` [Compound 5, 3-(1-Naphthalen-2-yl-1H-indole-3-yl)-4-[1-(3-tetrazol-2-yl-propyl)-1H-indazol-3-yl]-pyrrole-2,5-dione] as the compound, how does the IC50 (PKC isoform α) read?
Answer: Its IC50 is 0.542 µM.

Question: What about the IC50 (PKC isoform β-II) of the same compound?
Answer: The IC50 was 0.025 µM.

Question: What about the IC50 (PKC isoform γ) of the same compound?
Answer: The IC50 was 1.7 µM.

Question: And the IC50 [1]?
Answer: Its IC50 is 0.776 µM.

Question: For `Cn1cc(C2=C(c3nn(CCCn4ccnn4)c4ccccc34)C(=O)NC2=O)c2cc(Cl)ccc21` [Compound 2, 3-(5-Chloro-1-methyl-1H-indole-3-yl)-4-[1-(3-[1,2,3]triazole-1-yl-propyl)-1H-indzol-3-yl]-pyrrole-2,5-dione], which IC50 (PKC isoform α) is on record?
Answer: Its IC50 is 1.21 µM.

Question: What about the IC50 (PKC isoform β-II) of the same compound?
Answer: Its IC50 is 0.046 µM.

Question: And the IC50 (PKC isoform γ)?
Answer: Its IC50 is 0.395 µM.

Question: And the IC50 [1]?
Answer: The IC50 was 0.003 µM.

Question: How did the IC50 (PKC isoform α) turn out when `Cn1cc(C2=C(c3nn(CCCn4ncnn4)c4ccccc34)C(=O)NC2=O)c2cc(Cl)ccc21` [Compound 3, 3-(5-Chloro-1-methyl-1H-indol-3-yl)-4-[1-(3-tetrazol-2-yl-propyl)-1H-indazol-3-yl]pyrrole-2,5-dione] was run?
Answer: The IC50 was 2.35 µM.

Question: What about the IC50 (PKC isoform β-II) of the same compound?
Answer: The IC50 was 0.045 µM.

Question: And the IC50 (PKC isoform γ)?
Answer: The IC50 was 1.01 µM.

Question: And the IC50 [1]?
Answer: The IC50 was 0.004 µM.

Question: With `Cc1nnn(CCCn2nc(C3=C(c4cn(C)c5ccc(Cl)cc45)C(=O)NC3=O)c3ccccc32)n1` [Compound 9] as the compound, how does the IC50 (PKC isoform α) read?
Answer: Its IC50 is 2.98 µM.

Question: And the IC50 (PKC isoform β-II)?
Answer: Its IC50 is 0.041 µM.

Question: And the IC50 (PKC isoform γ)?
Answer: Its IC50 is 1.42 µM.

Question: And the IC50 [1]?
Answer: Its IC50 is 0.005 µM.

Question: With `O=C1NC(=O)C(c2nn(CCCn3cnnn3)c3ccccc23)=C1c1cn(-c2ccc3ccccc3c2)c2ccccc12` [Compound 6, 3-(1-Naphthalen-2-yl-1H-indol-3-yl)-4-[1-(3-tetrazol-1-yl-propyl)-1H-indazol-3-yl]pyrrole-2,5-dione] as the compound, how does the IC50 (PKC isoform α) read?
Answer: Its IC50 is 0.326 µM.

Question: What about the IC50 (PKC isoform β-II) of the same compound?
Answer: Its IC50 is 0.022 µM.

Question: What about the IC50 (PKC isoform γ) of the same compound?
Answer: The IC50 was 1.11 µM.

Question: And the “GSK-3β Assay Activity, % @ 1 μM” value ([1]; @ 1 μM)?
Answer: Its value is 29% @ 1 μM.

Question: `Cn1cc(C2=C(c3nn(CCc4nnn[nH]4)c4ccccc34)C(=O)NC2=O)c2cc(Cl)ccc21` [Compound 11, 3-(5-Chloro-1-methyl-1H-indol-3-yl)-4-{1-[2-(1H-tetrazol-5-yl)-ethyl]-1H-indazol-3-yl)-pyrrole-2,5-dione] was tested. Which IC50 (PKC isoform α) did it give?
Answer: The IC50 was 1.36 µM.

Question: And the IC50 (PKC isoform β-II)?
Answer: The IC50 was 0.123 µM.

Question: What about the IC50 (PKC isoform γ) of the same compound?
Answer: The IC50 was 1.93 µM.

Question: What about the IC50 [1] of the same compound?
Answer: The IC50 was 0.005 µM.

Source: patent US7439363B2, “Substituted indazoly(indoly)maleimide derivatives as kinase inhibitors” (Janssen Parmaceutica N.V., priority 2003, dated 2008)
